Target: T1, human histamine H3 receptor (Homo sapiens, UniProt Q9Y5N1, E19D)
T1 construct: achieved by transfection of full-length human histamine H3 receptor cDNA into a mammalian host cell; expressed in transfected cells; membrane preparation
Assay: Saturation binding of [3H]-N-alpha-methylhistamine to membranes of pH3R expressing L cells
Details: recombinant receptor in L cells, FIG. 7, radioligand 0.01 nM-25 nM, room temperature 45 minutes
Experimental: Binding Assay on Recombinant Human Histamine H3 Receptor L cells that inhibited forskolin-stimulated cAMP accumulation as described above were grown in 150 cm2 tissue culture dishes. Cells were washed with saline solution, scraped with a cell scraper and collected by centrifugation (1000 rpm, 5 min). L cells expressing human histamine H3 receptor bound ^3H—N-alpha-methylhistamine with high affinity (FIG. 7). Cell membranes were prepared by homogenization of the cell pellet in 20 mM TRIS-HCl with a polytron tissue homogenizer for 10 seconds at high speed. Homogenate was centrifuged at 1000 rpm for 5 minutes at 4° C. The supernatant was then collected and centrifuged at 20,000×g for 25 minutes at 4° C. The final pellet is resuspended in 50 mM Tris-HCl. Cell membranes were incubated with ^3H—N-alpha-methylhistamine (0.01 nM–25 nM) in the presence or absence of excess histamine (10000 nM). Incubation was done at room temperature for 45 minutes. Membranes were harvested by rapid filtration over Whatman GF/C filters and washed 4 times with ice cold 50 mM TRIS HCl. Filters were then dried, mixed with scintillant and counted for radioactivity. […]

T1 sequence (Q9Y5N1 whole entry E19D): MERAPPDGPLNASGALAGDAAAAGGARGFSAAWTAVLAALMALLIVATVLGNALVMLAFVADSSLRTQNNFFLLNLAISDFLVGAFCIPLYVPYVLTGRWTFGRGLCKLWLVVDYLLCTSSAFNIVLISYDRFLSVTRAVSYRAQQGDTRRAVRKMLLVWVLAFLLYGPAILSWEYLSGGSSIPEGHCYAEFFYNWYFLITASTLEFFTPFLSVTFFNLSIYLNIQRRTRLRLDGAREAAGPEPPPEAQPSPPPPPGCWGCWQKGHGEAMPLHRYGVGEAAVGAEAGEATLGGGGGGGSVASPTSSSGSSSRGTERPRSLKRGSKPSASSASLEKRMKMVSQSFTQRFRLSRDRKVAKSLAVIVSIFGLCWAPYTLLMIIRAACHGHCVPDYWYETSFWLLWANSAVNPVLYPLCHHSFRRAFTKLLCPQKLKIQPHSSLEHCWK

## [3H]CNCCc1cnc[nH]1 [^3H—N-alpha-methylhistamine]
  affinity of binding to L cells expressing human histamine H3 receptor: high affinity
